In this test the test system is HeLa UNC5B cells. Briefly: UNC5B-induced DNA fragmentation in HeLa UNC5B cells. Particulars: doxycycline-induced UNC5B; 18 hours. Format: cell-based, Human. On the procedure: FIG. 2. CRISPR-Cas9 screening identifies genes and molecular pathways involved in UNC5B-induced cell death. Related to FIG. 1. (A): UNC5B induction upon treatment with doxycycline. Stable HCT116 cells, inducible for UNC5B, were treated with the indicated concentrations of doxycycline (Dox). 24 hours later, protein levels of FLAG-UNC5B and GAPDH, used as housekeeping gene, were assessed by western blot. (B): UNC5B induction upon treatment with doxycycline on Hela cells. Stable Hela cells inducible for UNC5B (HeLa UNC5B) were treated with the indicated doses of Dox for 18 hours. Protein levels of His-UNC5B and β-actin, used as housekeeping gene, were measured by western blot. (C,D,E): Induction of UNC5B triggers apoptotic cell death in HCT116 cells. Stable HCTT16 cells inducible for human UNC5B were treated with Dox. To assess cell death, propidium iodide (PI) incorporation was followed in real-time up to 36 hours, using an Incucyte Zoom technology (n=3, ** p<0.01, Kolmogorov Smirnov test) (C). Apoptosis was assessed 18 hours after Dox treatment by DNA fragmentation through flow cytometry ([…] (D) and by caspase-3 activity (E), quantified by fluorometric detection kit (n=3, *p<0.05, ** p<0.01, *** p<0.001, Ordinary two-way ANOVA). Values are given as means±SEM. (F): Caspase inhibition rescues apoptosis triggered by UNC5B. HeLa UNC5B cells were treated with Dox and the pan-caspase inhibitor […] (QVD). 18 hours later, DNA fragmentation was evaluated by flow cytometry (n=3, **** p<0.0001, ordinary two-way ANOVA with Šidák's multiple comparisons test). Values are given as means±SEM. […] The number of guides showing an increase in reads compared to control condition is shown for each gene.
FIG. 4. […] 18 hours after treatment, apoptosis was measured by DNA fragmentation (A) and caspase-3 activity (B) (n=3-4, **** p<0.0001, ordinary two-way ANOVA with Tukey's multiple comparisons test). […] Protein levels of Mcl-1, Bcl-2 and Bcl-XL, as well as of UNC5B and B-actin, used as housekeeping gene, were evaluated by western blot. […]

This note sets out measurements from patent publication US20250215071A1, “Novel Mcl-1 inhibitor and combination of Mcl-1 and a BH3 mimetic, such as a Bcl-2 inhibitor” (NETRIS PHARMA, priority 2022, published 2025).

With `CC(C)C[C@H](NC(=O)[C@H](Cc1ccccc1)NC(=O)c1cnccn1)B(O)O` [bortezomib], the “UNC5B-induced apoptosis (DNA fragmentation)” value was “suppressed”.
